# In ChEMBL document CHEMBL5634134, “Design, synthesis, and biological evaluation of novel 4,4'-bipyridine derivatives acting as CDK9-Cyclin T1 protein-protein interaction inhibitors against triple-negative breast cancer” (Eur J Med Chem, 2023):
# The source made the active and inactive calls. The calls are words filed in the database; no cut-off is given here.
# Key:
# [1] = tested on: MDA-MB-231; assay: Effect on RNA polymerase II phosphorylation at Ser2 residue in human MDA-MB-231 cells transfected with shCDK9 at 300 nM by Western blot analysis; type: functional, cell-based
# [2] = Toxicity in mouse assessed as death rate at 750 mg/kg, ip administered for 16 days relative to control; type: organism-based; details: in vivo, time 16 day, read-out: Activity
# [3] = tested on: MDA-MB-231; assay: Induction of apoptosis in human MDA-MB-231 cells assessed as necrotic cells at 1000 nM incubated for 72 hrs by Annexin V-FITC/PI staining based flow cytometry analysis (reference value: 0.49 %); type: functional
# [4] = tested on: MDA-MB-231; assay: Induction of apoptosis in human MDA-MB-231 cells assessed as viable cells at 1000 nM incubated for 72 hrs by Annexin V-FITC/PI staining based flow cytometry analysis (reference value: 94.81 %); type: functional; details: read-out: Activity
# [5] = tested on: 4T1; assay: Antitumor activity against mouse 4T1 cells implanted in athymic BALB/c mouse assessed as reduction in tumor volume at 12.5 to 25 mg/kg, ip administered for 14 days; type: functional, organism-based; details: dose 12.5-25 mg/kg, time 14.0 day
# [6] = tested on: MDA-MB-231; assay: Induction of apoptosis in human MDA-MB-231 cells assessed as necrotic cells at 333 nM incubated for 72 hrs by Annexin V-FITC/PI staining based flow cytometry analysis (reference value: 0.49 %); type: functional
# [7] = Toxicity in athymic BALB/c mouse implanted with mouse 4T1 cells assessed as body weight loss at 12.5 mg/kg, ip administered for 14 days; type: organism-based; details: in vivo, 336 h, time 14 day
# [8] = Toxicity in mouse assessed as animal death at 62.5 to 500 mg/kg, ip administered for 16 days; type: organism-based; details: in vivo, 384 h, dose 62.5-500 mg/kg, time 16 day
# [9] = AUC (0 to t) in Sprague-Dawley rat at 50 mg/kg, ip measured afer 24 hrs by LC-MS/MS analysis; type: ADME, organism-based; details: in vivo
# [10] = Cytotoxicity against human MCF-10A cells assessed as inhibition of cell growth incubated for 72 hrs by MTT assay; type: toxicity, cell-based
# [11] = AUC (0 to infinity) in Sprague-Dawley rat at 50 mg/kg, ip measured afer 24 hrs by LC-MS/MS analysis; type: ADME, organism-based; details: in vivo
# [12] = tested on: MDA-MB-231; assay: Antiproliferative activity against human MDA-MB-231 cells assessed as inhibition of 3D tumor growth at 100 nM incubated for 10 days in presence of olaparib by confocal laser scanning microscopic analysis; type: functional, cell-based; details: time 10.0 day
# [13] = tested on: MDA-MB-231; assay: Inhibition of colony formation in human MDA-MB-231 cells assessed as reduction in colony size incubated for 10 days by crystal violet staining based analysis; type: functional, cell-based; details: dose 12-1000 nM, time 10.0 day
# [14] = tested on: 4T1; assay: Antitumor activity against mouse 4T1 cells implanted in athymic BALB/c mouse assessed as tumor inhibition rate at 12.5 mg/kg, ip administered for 14 days relative to control; type: functional; details: 4T1, 336 h, time 14 day
# [15] = tested on: 4T1; assay: Antitumor activity against mouse 4T1 cells implanted in athymic BALB/c mouse assessed as tumor inhibition rate at 25 mg/kg, ip administered for 14 days relative to control; type: functional; details: 4T1, 336 h, time 14 day
# [16] = tested on: MDA-MB-231; assay: Induction of apoptosis in human MDA-MB-231 cells assessed as increase in cleaved PARP-1 protein incubated for 24 hrs by Western blotting analysis; type: functional, cell-based; details: dose 37-1000 nM
# [17] = MRT (0 to infinity) in Sprague-Dawley rat at 50 mg/kg, ip measured afer 24 hrs by LC-MS/MS analysis; type: ADME, organism-based; details: in vivo
# [18] = tested on: MDA-MB-231; assay: Inhibition of cell invasion in human MDA-MB-231 cells incubated for 24 hrs by crystal violet staining based transwell matrix penetration assay; type: functional; details: dose 37-1000 nM
# [19] = target: Cyclin-dependent kinase 7 (Homo sapiens) (UniProt P50613); assay: Binding affinity to CDK7 in human MDA-MB-231 cells asssesed as thermal stabilization at 1 uM incubated for 8 hrs under 45 to 65 degreeC by Western blot analysis; type: cell-based
# [20] = Toxicity in mouse assessed as death rate at 1000 mg/kg, ip administered for 16 days relative to control; type: organism-based; details: in vivo, time 16 day, read-out: Activity
# [21] = Toxicity in athymic BALB/c mouse implanted with mouse 4T1 cells assessed as liver tissue damage at 12.5 to 25 mg/kg, ip administered for 14 days; type: organism-based; details: in vivo, 336 h, dose 12.5-25 mg/kg, time 14 day
# [22] = tested on: MDA-MB-231; assay: Induction of apoptosis in human MDA-MB-231 cells transfected with shCDK9 assessed as reduction in Bcl-2 expression at 300 nM by Western blot analysis; type: functional, cell-based
# [23] = target: Cyclin-dependent kinase 1 (Homo sapiens) (UniProt P06493); assay: Binding affinity to CDK1 in human MDA-MB-231 cells asssesed as thermal stabilization at 1 uM incubated for 8 hrs under 45 to 65 degreeC by Western blot analysis; type: cell-based
# [24] = Toxicity in mouse assessed as increase in body weight at 62.5 to 500 mg/kg, ip administered for 16 days; type: organism-based; details: in vivo, 384 h, dose 62.5-500 mg/kg, time 16 day
# [25] = tested on: MDA-MB-231; assay: Induction of apoptosis in human MDA-MB-231 cells assessed as late apoptotic cells at 1000 nM incubated for 72 hrs by Annexin V-FITC/PI staining based flow cytometry analysis (reference value: 4.04 %); type: functional
# [26] = target: Cyclin-dependent kinase 7/ cyclin H (Homo sapiens) (UniProt P51946+P50613); assay: Inhibition of Flag-tagged CDK7(unknown origin)/Cyclin H (unknown origin) transfected in HEK293T cells at 1 to 3 uM incubated for 8 hrs by co-immunoprecipitation assay; type: cell-based; details: dose 1-3 µM
# [27] = tested on: MDA-MB-231; assay: Induction of apoptosis in human MDA-MB-231 cells assessed as early apoptotic cells at 37 nM incubated for 72 hrs by Annexin V-FITC/PI staining based flow cytometry analysis (reference value: 0.66 %); type: functional
# [28] = tested on: MDA-MB-231; assay: Induction of apoptosis in human MDA-MB-231 cells assessed as necrotic cells at 111 nM incubated for 72 hrs by Annexin V-FITC/PI staining based flow cytometry analysis (reference value: 0.49 %); type: functional
# [29] = tested on: MDA-MB-231; assay: Effect on Mcl-1 protein expression in human MDA-MB-231 cells transfected with shCDK9 at 300 nM by Western blot analysis; type: functional, cell-based
# [30] = tested on: MDA-MB-231; assay: Induction of apoptosis in human MDA-MB-231 cells assessed as viable cells at 333 nM incubated for 72 hrs by Annexin V-FITC/PI staining based flow cytometry analysis (reference value: 94.81 %); type: functional; details: read-out: Activity
# [31] = tested on: MDA-MB-231; assay: Induction of apoptosis in human MDA-MB-231 cells assessed as late apoptotic cells at 111 nM incubated for 72 hrs by Annexin V-FITC/PI staining based flow cytometry analysis (reference value: 4.04 %); type: functional
# [32] = Toxicity in athymic BALB/c mouse implanted with mouse 4T1 cells assessed as lung tissue damage at 12.5 to 25 mg/kg, ip administered for 14 days; type: organism-based; details: in vivo, 336 h, dose 12.5-25 mg/kg, time 14 day
# [33] = target: Cyclin-dependent kinase 12 (Homo sapiens) (UniProt Q9NYV4); assay: Binding affinity to CDK12 in human MDA-MB-231 cells asssesed as thermal stabilization at 1 uM incubated for 8 hrs under 45 to 65 degreeC by Western blot analysis; type: cell-based
# [34] = Toxicity in athymic BALB/c mouse implanted with mouse 4T1 cells assessed as heart tissue damage at 12.5 to 25 mg/kg, ip administered for 14 days; type: organism-based; details: in vivo, 336 h, dose 12.5-25 mg/kg, time 14 day
# Chain of Cyclin-dependent kinase 12 (Homo sapiens) (Q9NYV4 whole entry, looked up): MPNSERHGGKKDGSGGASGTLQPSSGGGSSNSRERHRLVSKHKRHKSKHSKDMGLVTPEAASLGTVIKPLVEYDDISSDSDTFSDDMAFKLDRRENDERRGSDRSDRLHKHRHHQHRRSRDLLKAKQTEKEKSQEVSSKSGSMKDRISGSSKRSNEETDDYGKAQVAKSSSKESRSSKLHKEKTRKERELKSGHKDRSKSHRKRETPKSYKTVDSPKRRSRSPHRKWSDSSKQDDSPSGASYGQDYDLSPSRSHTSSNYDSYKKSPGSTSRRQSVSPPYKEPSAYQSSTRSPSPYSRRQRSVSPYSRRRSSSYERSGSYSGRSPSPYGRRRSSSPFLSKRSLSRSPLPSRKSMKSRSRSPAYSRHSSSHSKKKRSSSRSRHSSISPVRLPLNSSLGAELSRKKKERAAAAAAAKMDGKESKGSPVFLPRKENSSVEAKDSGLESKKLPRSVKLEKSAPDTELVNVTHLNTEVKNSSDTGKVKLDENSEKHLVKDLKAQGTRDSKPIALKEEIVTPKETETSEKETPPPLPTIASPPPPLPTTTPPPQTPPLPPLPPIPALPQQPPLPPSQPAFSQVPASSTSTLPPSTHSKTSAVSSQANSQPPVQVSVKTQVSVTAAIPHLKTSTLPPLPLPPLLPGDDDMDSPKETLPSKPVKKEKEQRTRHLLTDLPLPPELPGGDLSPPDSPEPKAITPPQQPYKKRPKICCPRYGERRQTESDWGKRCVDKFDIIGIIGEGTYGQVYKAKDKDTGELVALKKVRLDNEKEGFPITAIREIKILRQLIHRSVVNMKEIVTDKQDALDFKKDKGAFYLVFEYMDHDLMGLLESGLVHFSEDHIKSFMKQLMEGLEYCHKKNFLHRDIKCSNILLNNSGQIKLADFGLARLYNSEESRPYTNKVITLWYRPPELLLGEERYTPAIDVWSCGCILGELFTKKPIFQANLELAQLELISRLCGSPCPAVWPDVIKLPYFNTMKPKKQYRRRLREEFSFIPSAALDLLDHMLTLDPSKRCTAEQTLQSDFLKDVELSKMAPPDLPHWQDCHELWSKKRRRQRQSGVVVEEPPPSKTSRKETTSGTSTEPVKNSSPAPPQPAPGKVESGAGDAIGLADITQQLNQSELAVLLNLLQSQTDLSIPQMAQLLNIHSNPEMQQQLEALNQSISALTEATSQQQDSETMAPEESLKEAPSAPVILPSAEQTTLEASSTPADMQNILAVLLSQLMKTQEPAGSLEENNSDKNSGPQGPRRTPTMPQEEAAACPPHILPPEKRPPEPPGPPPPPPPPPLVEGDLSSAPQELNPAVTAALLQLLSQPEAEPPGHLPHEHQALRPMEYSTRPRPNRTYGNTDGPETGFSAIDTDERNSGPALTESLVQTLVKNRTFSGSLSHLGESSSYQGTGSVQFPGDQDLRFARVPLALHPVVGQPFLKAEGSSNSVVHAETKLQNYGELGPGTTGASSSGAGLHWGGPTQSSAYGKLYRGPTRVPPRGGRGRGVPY
# Chain of Cyclin-dependent kinase 7 (Homo sapiens) (P50613 whole entry): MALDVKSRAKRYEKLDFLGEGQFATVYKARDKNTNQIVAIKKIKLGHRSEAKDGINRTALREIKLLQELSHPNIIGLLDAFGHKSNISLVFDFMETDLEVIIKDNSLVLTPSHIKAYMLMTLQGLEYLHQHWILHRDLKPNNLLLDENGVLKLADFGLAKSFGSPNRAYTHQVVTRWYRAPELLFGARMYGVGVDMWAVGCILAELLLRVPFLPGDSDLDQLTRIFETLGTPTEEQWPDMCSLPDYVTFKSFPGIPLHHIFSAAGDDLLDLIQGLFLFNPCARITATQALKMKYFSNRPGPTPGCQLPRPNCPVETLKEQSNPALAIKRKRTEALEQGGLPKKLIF
# Chain of Cyclin-dependent kinase 1 (Homo sapiens) (P06493 whole entry, looked up): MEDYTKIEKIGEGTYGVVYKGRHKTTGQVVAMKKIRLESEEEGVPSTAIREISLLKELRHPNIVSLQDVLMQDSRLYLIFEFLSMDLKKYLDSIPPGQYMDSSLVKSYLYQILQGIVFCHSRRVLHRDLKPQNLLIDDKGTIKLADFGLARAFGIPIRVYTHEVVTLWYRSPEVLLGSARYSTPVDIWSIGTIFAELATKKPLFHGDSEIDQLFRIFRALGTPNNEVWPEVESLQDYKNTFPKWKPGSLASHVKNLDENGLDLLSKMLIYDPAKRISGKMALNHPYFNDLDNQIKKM
compound,measurement,setting,value
COc1ccc(C(=O)Nc2cc(-c3ccnc(N4CCC(O)CC4)c3)ccn2)cc1,Activity,[1],inactive
same,mortality at 384 h,[2],40%
same,Activity,[3],0%
same,viability at 1 µM,[4],14.2%
same,Activity,[5],Active
same,Activity,[6],0.25%
same,Activity,[7],Non-Toxic
same,Activity,[8],Non-Toxic
same,AUC(0-t) at 24 h,[9],17000 ng·h/mL
same,IC50 at 72 h,[10],498 nM
same,AUC(0-inf),[11],17000 ng·h/mL
same,Activity,[12],Active
same,inhibition,[13],Dose-Dependent Effect
same,inhibition in vivo at 12.5 mg/kg,[14],63.1%
same,inhibition in vivo at 25 mg/kg,[15],86.1%
same,Activity,[16],Dose-Dependent Effect
same,MRT inf,[17],1.26 h
same,inhibition,[18],Dose-Dependent Effect
same,Activity,[19],inactive
same,mortality at 384 h,[20],100%
same,Activity,[21],Non-Toxic
same,Activity,[22],inactive
same,Activity,[23],inactive
same,Activity,[24],Non-Toxic
same,Activity,[25],71.6%
same,inhibition,[26],inactive
same,Activity,[27],3.14%
same,Activity,[28],0.17%
same,Activity,[29],inactive
same,viability at 0.333 µM,[30],30.8%
same,Activity,[31],34.93%
same,Activity,[32],Non-Toxic
same,Activity,[33],inactive
same,Activity,[34],Non-Toxic
